In patent EP0444659B1, “A pharmaceutical solution comprising derivatives of FK506” (FUJISAWA PHARMACEUTICAL CO., LTD., priority 1990, dated 1991):

Assay: dilution of the solution with physiological saline: clarity, turbidity and crystal separation
Assay type: physicochemical
Method: Nonaqueous solvent is, at the time of administrating into the human vascular tract, usually diluted with aqueous solvent such as physiological saline, since nonaqueous solvent has hemolysis action.
The experimental solution (1ml) of the following prescription 3 consisting of FK 506, surface active agent and nonaqueous solvent was diluted with physiological saline (100ml) to find that the clear appearance of prescription was kept unchanged.
Then several prescriptions of clear solution were further prepared altering the concentration of FK 506, the kind and the concentration of surface active agent, and were tested how change the clearity of the solution and whether separate out the crystal or not under the several condition of different degree of dilution.

Question: With `C=CCC1C=C(C)CC(C)CC(OC)C2OC(O)(C(=O)C(=O)N3CCCCC3C(=O)OC(C(C)=CC3CCC(O)C(OC)C3)C(C)C(O)CC1=O)C(C)CC2OC` (centres unmarked) [FK 506, 17-allyl-1,14-dihydroxy-12-[2-(4-hydroxy-3-methoxycyclohexyl)-1-methylvinyl]-23, 25-dimethoxy-13,19,21,27-tetramethyl-11, 28-dioxa-4-azatricyclo-[22.3.1.0^4.9] octacos-18-ene-2,3,10,16-tetraone] as the molecule, how does the “Period till solution becomes turbid to crystallize FK506” value (from here on “Period till solution becomes turbid”) (FK 506 5 mg/ml, dilution times with physiological saline 2, Cremophor®EL, ethanol/surface active agent 35/65) read?
Answer: The value was “≧7 days”.

Question: What about the “Period till solution becomes turbid” value (FK 506 5 mg/ml, dilution times with physiological saline 2, Cremophor®EL, ethanol/surface active agent 80/20) of the same molecule?
Answer: Its value is “≧7 days”.

Question: What about the “Period till solution becomes turbid” value (FK 506 5 mg/ml, dilution times with physiological saline 2, HCO-40, ethanol/surface active agent 40/60) of the same molecule?
Answer: Its value is “≧7 days”.

Question: What about the “Period till solution becomes turbid” value (FK 506 5 mg/ml, dilution times with physiological saline 2, HCO-40, ethanol/surface active agent 80/20) of the same molecule?
Answer: The value was “≧7 days”.

Question: And the “Period till solution becomes turbid” value (FK 506 5 mg/ml, dilution times with physiological saline 2, HCO-60, ethanol/surface active agent 35/65)?
Answer: Its value is “≧7 days”.

Question: And the “Period till solution becomes turbid” value (FK 506 5 mg/ml, dilution times with physiological saline 2, HCO-60, ethanol/surface active agent 60/40)?
Answer: The value was “≧7 days”.

Question: What about the “Period till solution becomes turbid” value (FK 506 5 mg/ml, dilution times with physiological saline 2, HCO-60, ethanol/surface active agent 80/20) of the same molecule?
Answer: The value was “≧7 days”.

Question: And the “Period till solution becomes turbid” value (FK 506 5 mg/ml, dilution times with physiological saline 100, Cremophor®EL, ethanol/surface active agent 35/65)?
Answer: Its value is “≧7 days”.

Question: And the “Period till solution becomes turbid” value (FK 506 5 mg/ml, dilution times with physiological saline 100, Cremophor®EL, ethanol/surface active agent 80/20)?
Answer: Its value is “≧7 days”.

Question: And the “Period till solution becomes turbid” value (FK 506 5 mg/ml, dilution times with physiological saline 100, HCO-40, ethanol/surface active agent 40/60)?
Answer: Its value is “≧7 days”.

Question: And the “Period till solution becomes turbid” value (FK 506 5 mg/ml, dilution times with physiological saline 100, HCO-40, ethanol/surface active agent 80/20)?
Answer: The value was “≧7 days”.

Question: And the “Period till solution becomes turbid” value (FK 506 5 mg/ml, dilution times with physiological saline 100, HCO-60, ethanol/surface active agent 35/65)?
Answer: Its value is “≧7 days”.

Question: And the “Period till solution becomes turbid” value (FK 506 5 mg/ml, dilution times with physiological saline 100, HCO-60, ethanol/surface active agent 60/40)?
Answer: Its value is “≧7 days”.

Question: And the “Period till solution becomes turbid” value (FK 506 5 mg/ml, dilution times with physiological saline 100, HCO-60, ethanol/surface active agent 80/20)?
Answer: The value was “≧7 days”.

Question: And the “Period till solution becomes turbid” value (FK 506 10 mg/ml, dilution times with physiological saline 2, Cremophor®EL, ethanol/surface active agent 35/65)?
Answer: The value was “≧7 days”.

Question: And the “Period till solution becomes turbid” value (FK 506 10 mg/ml, dilution times with physiological saline 2, Cremophor®EL, ethanol/surface active agent 80/20)?
Answer: The value was “≧7 days”.

Question: And the “Period till solution becomes turbid” value (FK 506 10 mg/ml, dilution times with physiological saline 2, HCO-40, ethanol/surface active agent 40/60)?
Answer: The value was “≧7 days”.

Question: And the “Period till solution becomes turbid” value (FK 506 10 mg/ml, dilution times with physiological saline 2, HCO-40, ethanol/surface active agent 80/20)?
Answer: The value was “≧7 days”.

Question: And the “Period till solution becomes turbid” value (FK 506 10 mg/ml, dilution times with physiological saline 2, HCO-60, ethanol/surface active agent 35/65)?
Answer: Its value is “≧7 days”.

Question: What about the “Period till solution becomes turbid” value (FK 506 10 mg/ml, dilution times with physiological saline 2, HCO-60, ethanol/surface active agent 60/40) of the same molecule?
Answer: The value was “≧7 days”.

Question: What about the “Period till solution becomes turbid” value (FK 506 10 mg/ml, dilution times with physiological saline 2, HCO-60, ethanol/surface active agent 80/20) of the same molecule?
Answer: Its value is “≧7 days”.

Question: What about the “Period till solution becomes turbid” value (FK 506 10 mg/ml, dilution times with physiological saline 100, Cremophor®EL, ethanol/surface active agent 35/65) of the same molecule?
Answer: Its value is “≧7 days”.

Question: And the “Period till solution becomes turbid” value (FK 506 10 mg/ml, dilution times with physiological saline 100, Cremophor®EL, ethanol/surface active agent 80/20)?
Answer: The value was “≧7 days”.

Question: What about the “Period till solution becomes turbid” value (FK 506 10 mg/ml, dilution times with physiological saline 100, HCO-40, ethanol/surface active agent 40/60) of the same molecule?
Answer: Its value is “≧7 days”.

Question: And the “Period till solution becomes turbid” value (FK 506 10 mg/ml, dilution times with physiological saline 100, HCO-40, ethanol/surface active agent 80/20)?
Answer: The value was “≧7 days”.

Question: And the “Period till solution becomes turbid” value (FK 506 10 mg/ml, dilution times with physiological saline 100, HCO-60, ethanol/surface active agent 35/65)?
Answer: The value was “≧7 days”.

Question: And the “Period till solution becomes turbid” value (FK 506 10 mg/ml, dilution times with physiological saline 100, HCO-60, ethanol/surface active agent 60/40)?
Answer: Its value is “≧7 days”.

Question: What about the “Period till solution becomes turbid” value (FK 506 10 mg/ml, dilution times with physiological saline 100, HCO-60, ethanol/surface active agent 80/20) of the same molecule?
Answer: Its value is “≧7 days”.

Question: And the “Period till solution becomes turbid” value (FK 506 25 mg/ml, dilution times with physiological saline 2, Cremophor®EL, ethanol/surface active agent 35/65)?
Answer: Its value is “≧7 days”.

Question: What about the “Period till solution becomes turbid” value (FK 506 25 mg/ml, dilution times with physiological saline 2, Cremophor®EL, ethanol/surface active agent 80/20) of the same molecule?
Answer: The value was “≧7 days”.

Question: What about the “Period till solution becomes turbid” value (FK 506 25 mg/ml, dilution times with physiological saline 2, HCO-40, ethanol/surface active agent 40/60) of the same molecule?
Answer: The value was “≧7 days”.

Question: What about the “Period till solution becomes turbid” value (FK 506 25 mg/ml, dilution times with physiological saline 2, HCO-40, ethanol/surface active agent 80/20) of the same molecule?
Answer: The value was “≧7 days”.

Question: And the “Period till solution becomes turbid” value (FK 506 25 mg/ml, dilution times with physiological saline 2, HCO-60, ethanol/surface active agent 35/65)?
Answer: Its value is “≧7 days”.

Question: What about the “Period till solution becomes turbid” value (FK 506 25 mg/ml, dilution times with physiological saline 2, HCO-60, ethanol/surface active agent 60/40) of the same molecule?
Answer: Its value is “≧7 days”.

Question: And the “Period till solution becomes turbid” value (FK 506 25 mg/ml, dilution times with physiological saline 2, HCO-60, ethanol/surface active agent 80/20)?
Answer: Its value is “≧7 days”.

Question: What about the “Period till solution becomes turbid” value (FK 506 25 mg/ml, dilution times with physiological saline 100, Cremophor®EL, ethanol/surface active agent 35/65) of the same molecule?
Answer: The value was “≧7 days”.

Question: And the “Period till solution becomes turbid” value (FK 506 25 mg/ml, dilution times with physiological saline 100, Cremophor®EL, ethanol/surface active agent 80/20)?
Answer: The value was “≧1 days”.

Question: What about the “Period till solution becomes turbid” value (FK 506 25 mg/ml, dilution times with physiological saline 100, HCO-40, ethanol/surface active agent 40/60) of the same molecule?
Answer: The value was “≧7 days”.
